Data from US20250308625A1, “METHOD FOR ESTIMATING A DYNAMIC MOLECULAR PROGRAM OF A CELL” (Yale University, priority 2022, published 2025).

Molecular target: T1, ESRRA (Homo sapiens, UniProt P11474)
T1 construct: endogenous in cells; host or cells: HCC38 CD44hi cells (2D culture)
T1 sequence (P11474 1-423): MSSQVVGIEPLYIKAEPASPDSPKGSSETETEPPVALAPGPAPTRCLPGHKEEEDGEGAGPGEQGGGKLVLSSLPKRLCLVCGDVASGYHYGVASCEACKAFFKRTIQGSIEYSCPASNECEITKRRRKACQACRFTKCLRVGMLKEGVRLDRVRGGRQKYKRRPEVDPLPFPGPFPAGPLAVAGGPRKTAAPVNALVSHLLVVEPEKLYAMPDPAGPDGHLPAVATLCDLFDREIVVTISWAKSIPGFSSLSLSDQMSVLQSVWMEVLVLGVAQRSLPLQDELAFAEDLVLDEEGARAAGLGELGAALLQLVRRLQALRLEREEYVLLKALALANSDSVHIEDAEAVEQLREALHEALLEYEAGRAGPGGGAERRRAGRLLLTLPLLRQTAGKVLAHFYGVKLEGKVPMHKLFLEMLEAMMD
Experiment: Western blot of CDH1 expression after ESRRA knockdown (siRNA) or ESRRA inhibition (C14) in 2D cultured HCC38 CD44hi cells
Format: cell-based
Details: 2D culture, C14 at 5 and 10 μM vs DMSO, 48 hours post-treatment, normalized to β-Actin, n=3, p≤0.05
Method: Preliminary validation of the MET network included an in-vitro knockdown of ESRRA in HCC38 CD44^hi cells (n=3 biological replicates). Predesigned siRNA specific to ESRRA and scrambled siRNA were purchased from Integrated DNA Technologies, USA (TriFECTa® RNAi Kit, Design ID hs.Ri.ESRRA.13). HCC38 CD44^hi cells were seeded in 24 well plates at a density of 9000 cells/well and ESRRA knockdown was performed using 10 nM of pooled siRNA (hs.Ri.ESRRA.13.1, hs.Ri.ESRRA.13.2 and hs.Ri.ESRRA.13.3) using Lipofectamine RNAiMax (ThermoFisher Scientific, USA) as per the manufacturer's protocol. Cells were harvested for protein extraction 48 hrs post siRNA transfection to study the downstream effect on CDH1 expression upon ESRRA knockdown using western blot. […]
Proteins were extracted from control and treated cells using ice cold modified RIPA buffer (50 mM Tris-HCl pH 7.5, 150 mM NaCl, 1 mM EDTA, 1 mM EGTA, 1% Triton X-100, 0.1% SDS with supplemented with 1× protease and phosphatase inhibitor cocktails). […] Proteins were quantified using the Pierce™ BCA Protein Assay Kit (Cat. 23227, Thermo Fisher Scientific, USA) as per the manufacturer's instructions. […] The signal intensity of the bands in western blots was quantified using Image Studio Lite version 5.2 (LI-COR Biotechnology, USA).

In the case of `CC(C)c1cccc(-n2cc(C(=O)c3ccccc3N)nn2)c1` [ESRRA antagonist, (2-Aminophenyl) (1-(3-isopropylphenyl)-1H-1,2,3-triazol-4-yl) methanone], the “CDH1 expression (western blot, relative fold-change)” value is reported as “significant increase”.
